In US4493837A, “Theobromine derivatives” (Eisai Co., Ltd., priority 1979, dated 1985):

Experiments:
[1] = test system: femoral artery blood flow; assay: Blood flow-increasing action (average femoral artery blood flow after intraarterial injection, relative to papaverine); type: in vivo, mongrel dogs; conditions: anesthetized dogs, dose 0.03, 0.003 or 0.0003 mg/kg, papaverine 0.03 mg/kg = 1.00
Protocol: The blood flow at a femoral artery is measured by each of four male and female mongrel dogs weighing from 10 to 14 kg. That is, each subject is anesthetized by injecting intravenously 30 mg/kg of pentobarbital and one side femoral artery is exposed. A probe (2.5 mm diameter) of a magnetic blood flow meter (Model MF-26, a product of Nihon-Koden K.K.) is fitted to this artery and a catheter is inserted into and fixed to a side branch of this femoral artery. Intraarterial injection of 0.1 ml of the sample is then made and the average blood flow is measured. The dose of the sample is 0.03 mg/kg. When the blood flow-increasing action is strong, the dose is made 0.003 mg/kg and when the blood flow-increasing action is even stronger, it is made 0.0003 mg/kg in order to conduct the experiments. […] The numerical values in Table 1 represent the relative values of the compounds of this invention when the height of the blood flow-increase curve obtained by administration of 0.03 mg/kg papaverine is arbitrarily assigned the value 1.00. In other words, these values represent the ratio of the efficacy of the compounds of this invention relative to the activity of papaverine, with the latter being assigned the value 1.

[2] = test system: phenylquinone-induced writhing in mice; assay: Analgesic action: anti-writhing activity in mice (phenylquinone); type: in vivo; conditions: 4 mice
Protocol: The analgesic action of the compounds of the present invention was examined by the following experiment, using the writhing method disclosed in E. Siegmund et al; Proc. Soc. Exp. Biol. & Med., Vol. 95, 729 (1957).
Thirty minutes after subcutaneous injection of the compounds of the present invention, 2 mg/kg of phenylquinone was injected intraperitoneally to the mice. And 5 minutes later, the total number of writhes was counted for 4 minutes. Four mice were used for each dose level.

[3] = test system: grooming behavior in mice; assay: Inhibition of grooming behavior in mice; type: in vivo; conditions: for Number of grooming responses: 20-minutes count, 10 mice
Protocol: The grooming behavior-inhibiting action of the compounds of the present invention was examined by the following experiments, using the method disclosed in O. Rohte; Psychopharmacologia, Vol. 14, 18-22 (1969).
In this experiment, each sample (the compounds of the present invention, and chlorpromazine and diazepam as control medicines) was prepared in a form of 5% arabic gum suspension of 0.1 ml/10 g body weight of the animal.
Forty minutes after oral administration of each sample, the oily ink was painted on each mouse. And 10 minutes later, the number of grooming responses was counted for a 20-minutes period. A 5% arabic gum solution alone was administered to the control group.

[4] = test system: fighting behavior in mice; assay: Inhibition of the fighting behavior in mice; type: in vivo; conditions: for No. of fighting episodes: one hour after administration, 10 experiments
From the text: The anti-fighting action was examined in the following experiment, using the method disclosed in Ralph E. Tedeshi et al, Journal of Pharmacology and Experimental Therapeutics, Vol. 125, 28-34 (1959).
A pair of mice was placed in a plastic cage (16×10×18 cm) with the grid floor and applied electrical shocks (3 mA, 5 Hz, 50 msec.) during a 3-minutes period to their feet to induce the fighting behavior between the mice.
In this experiment, each sample (the compounds of the present invention, and chlorpromazine and diazepam as control medicines) was prepared in a form of a 5% arabic gum suspension and was orally administered to the mice. One hour after oral administration, the fighting behavior was observed. A 5% arabic gum solution was administered to the control group. Ten pairs of mice were used for each dose level.

For `COc1ccccc1N1CCN(CCCCCCn2c(=O)c3c(ncn3C)n(C)c2=O)CC1`, the “Specific activity (blood flow increase relative to papaverine = 1)” value [1] was 404.

For `Cn1cnc2c1c(=O)n(CCCCCN1CCN(c3ccccc3)CC1)c(=O)n2C`, the “Specific activity (blood flow increase relative to papaverine = 1)” value [1] was 247.

In the case of `COc1ccccc1N1CCN(CCCn2c(=O)c3c(ncn3C)n(C)c2=O)CC1`, the “Specific activity (blood flow increase relative to papaverine = 1)” value [1] is reported as 143.

With `COc1ccccc1N1CCN(CCn2c(=O)c3c(ncn3C)n(C)c2=O)CC1` the “Specific activity (blood flow increase relative to papaverine = 1)” value [1] was 95.

For `Cc1cccc(C)c1N1CCN(CCCCn2c(=O)c3c(ncn3C)n(C)c2=O)CC1`, the “% Inhibition (writhing)” value ([2]; 2.5 mg/kg s.c.) was 0%, the “% Inhibition (writhing)” value ([2]; 5.0 mg/kg s.c.) was 53% and the “% Inhibition (writhing)” value ([2]; 10.0 mg/kg s.c.) was 77%. The “% Inhibition (writhing)” value ([2]; 25.0 mg/kg s.c.) was 85%.

With `Cn1cnc2c1c(=O)n(CCCCCN1CCN(c3ccccc3Cl)CC1)c(=O)n2C` the “% Inhibition (writhing)” value ([2]; 1.0 mg/kg s.c.) was 0%, the “% Inhibition (writhing)” value ([2]; 2.5 mg/kg s.c.) was 56% and the “% Inhibition (writhing)” value ([2]; 5.0 mg/kg s.c.) was 87%. For the same compound, the “% Inhibition (writhing)” value ([2]; 10.0 mg/kg s.c.) was 100%.

`Cn1cnc2c1c(=O)n(CCCCCCN1CCN(c3ccccc3Cl)CC1)c(=O)n2C` was tested, and the “% Inhibition (writhing)” value ([2]; 0.25 mg/kg s.c.) was 10%, the “% Inhibition (writhing)” value ([2]; 0.5 mg/kg s.c.) was 70% and the “% Inhibition (writhing)” value ([2]; 1.0 mg/kg s.c.) was 80%. For the same compound, the “% Inhibition (writhing)” value ([2]; 2.5 mg/kg s.c.) was 90% and the “% Inhibition (writhing)” value ([2]; 5.0 mg/kg s.c.) was 100%.

In the case of `COc1ccc(Cc2nccc3cc(OC)c(OC)cc23)cc1OC` [Papaverine, reference compound], the “Specific activity (blood flow increase relative to papaverine = 1)” value [1] is reported as 1.

For `CN(C)CCCN1c2ccccc2Sc2ccc(Cl)cc21` [chlorpromazine, reference compound], the “% Inhibition (grooming responses)” value ([3]; 0.625 mg/kg P.O.) was 30%, the “Number of grooming responses” value ([3]; 0.625 mg/kg P.O.) was 21.4 ± 4.3 and the “% Inhibition (grooming responses)” value ([3]; 2.5 mg/kg P.O.) was 91%. For the same compound, the “Number of grooming responses” value ([3]; 2.5 mg/kg P.O.) was 2.9 ± 2.9, the “% Inhibition (grooming responses)” value ([3]; 10 mg/kg P.O.) was 61% and the “Number of grooming responses” value ([3]; 10 mg/kg P.O.) was 5.8 ± 5.8. For the same compound, the “% Inhibition (grooming responses)” value ([3]; 40 mg/kg P.O.) was 80%, the “Number of grooming responses” value ([3]; 40 mg/kg P.O.) was 5.9 ± 5.9 and the “% Inhibition (fighting episodes)” value ([4]; 0.625 mg/kg P.O.) was 30%. For the same compound, the “No. of fighting episodes” value ([4]; 0.625 mg/kg P.O.) was 3.9 ± 0.8, the “% Inhibition (fighting episodes)” value ([4]; 2.5 mg/kg P.O.) was 45% and the “No. of fighting episodes” value ([4]; 2.5 mg/kg P.O.) was 3.1 ± 1.0.

`CN1C(=O)CN=C(c2ccccc2)c2cc(Cl)ccc21` [diazepam, reference compound] was tested, and the “% Inhibition (grooming responses)” value ([3]; 0.625 mg/kg P.O.) was 53%, the “Number of grooming responses” value ([3]; 0.625 mg/kg P.O.) was 14.3 ± 4.2 and the “% Inhibition (grooming responses)” value ([3]; 2.5 mg/kg P.O.) was 68%. For the same compound, the “Number of grooming responses” value ([3]; 2.5 mg/kg P.O.) was 9.5 ± 5.2, the “% Inhibition (grooming responses)” value ([3]; 10 mg/kg P.O.) was 75% and the “Number of grooming responses” value ([3]; 10 mg/kg P.O.) was 7.6 ± 3.2. For the same compound, the “% Inhibition (fighting episodes)” value ([4]; 0.625 mg/kg P.O.) was 29%, the “No. of fighting episodes” value ([4]; 0.625 mg/kg P.O.) was 4.0 ± 1.0 and the “% Inhibition (fighting episodes)” value ([4]; 1.25 mg/kg P.O.) was 63%. For the same compound, the “No. of fighting episodes” value ([4]; 1.25 mg/kg P.O.) was 2.1 ± 0.9.

In the case of `Cn1cnc2c1c(=O)n(CCCCN1CCN(c3cccc(C(F)(F)F)c3)CC1)c(=O)n2C` [drawing 17], the “% Inhibition (grooming responses)” value ([3]; 0.625 mg/kg P.O.) is reported as 49%, the “Number of grooming responses” value ([3]; 0.625 mg/kg P.O.) is reported as 15.5 ± 5.8 and the “% Inhibition (grooming responses)” value ([3]; 2.5 mg/kg P.O.) is reported as 46%. For the same compound, the “Number of grooming responses” value ([3]; 2.5 mg/kg P.O.) was 16.5 ± 5.9, the “% Inhibition (grooming responses)” value ([3]; 10 mg/kg P.O.) was 95% and the “Number of grooming responses” value ([3]; 10 mg/kg P.O.) was 1.6 ± 1.6. For the same compound, the “% Inhibition (grooming responses)” value ([3]; 40 mg/kg P.O.) was 100% and the “Number of grooming responses” value ([3]; 40 mg/kg P.O.) was 0.

With `COc1ccccc1N1CCN(CCCCn2c(=O)c3c(ncn3C)n(C)c2=O)CC1` [drawing 18] the “% Inhibition (grooming responses)” value ([3]; 0.625 mg/kg P.O.) was 23%, the “Number of grooming responses” value ([3]; 0.625 mg/kg P.O.) was 23.4 ± 6.1 and the “% Inhibition (grooming responses)” value ([3]; 2.5 mg/kg P.O.) was 49%. For the same compound, the “Number of grooming responses” value ([3]; 2.5 mg/kg P.O.) was 15.6 ± 4.5, the “% Inhibition (grooming responses)” value ([3]; 10 mg/kg P.O.) was 68% and the “Number of grooming responses” value ([3]; 10 mg/kg P.O.) was 9.5 ± 4.1. The “% Inhibition (grooming responses)” value ([3]; 40 mg/kg P.O.) was 100% and the “Number of grooming responses” value ([3]; 40 mg/kg P.O.) was 0.

With `Cn1cnc2c1c(=O)n(CCCCN1CCN(c3cccc(C(F)(F)F)c3)CC1)c(=O)n2C` [drawing 19] the “% Inhibition (fighting episodes)” value ([4]; 0.625 mg/kg P.O.) was 25%, the “No. of fighting episodes” value ([4]; 0.625 mg/kg P.O.) was 4.2 ± 0.7 and the “% Inhibition (fighting episodes)” value ([4]; 2.5 mg/kg P.O.) was 81%. For the same compound, the “No. of fighting episodes” value ([4]; 2.5 mg/kg P.O.) was 1.0.

For `COc1ccccc1N1CCN(CCCCn2c(=O)c3c(ncn3C)n(C)c2=O)CC1` [drawing 20], the “% Inhibition (fighting episodes)” value ([4]; 0.625 mg/kg P.O.) was 41%, the “No. of fighting episodes” value ([4]; 0.625 mg/kg P.O.) was 3.3 ± 0.7 and the “% Inhibition (fighting episodes)” value ([4]; 2.5 mg/kg P.O.) was 71%. The “No. of fighting episodes” value ([4]; 2.5 mg/kg P.O.) was 1.6.
